Data reported in ChEMBL document CHEMBL3991601, “The target landscape of clinical kinase drugs” (Science, 2017).
Calls of active or inactive are those of the source.

Columns and labels:
[1] = target: T1, Acyl-CoA dehydrogenase family member 10 (Homo sapiens, UniProt Q6JQN1)
T1 sequence (Q6JQN1 whole entry): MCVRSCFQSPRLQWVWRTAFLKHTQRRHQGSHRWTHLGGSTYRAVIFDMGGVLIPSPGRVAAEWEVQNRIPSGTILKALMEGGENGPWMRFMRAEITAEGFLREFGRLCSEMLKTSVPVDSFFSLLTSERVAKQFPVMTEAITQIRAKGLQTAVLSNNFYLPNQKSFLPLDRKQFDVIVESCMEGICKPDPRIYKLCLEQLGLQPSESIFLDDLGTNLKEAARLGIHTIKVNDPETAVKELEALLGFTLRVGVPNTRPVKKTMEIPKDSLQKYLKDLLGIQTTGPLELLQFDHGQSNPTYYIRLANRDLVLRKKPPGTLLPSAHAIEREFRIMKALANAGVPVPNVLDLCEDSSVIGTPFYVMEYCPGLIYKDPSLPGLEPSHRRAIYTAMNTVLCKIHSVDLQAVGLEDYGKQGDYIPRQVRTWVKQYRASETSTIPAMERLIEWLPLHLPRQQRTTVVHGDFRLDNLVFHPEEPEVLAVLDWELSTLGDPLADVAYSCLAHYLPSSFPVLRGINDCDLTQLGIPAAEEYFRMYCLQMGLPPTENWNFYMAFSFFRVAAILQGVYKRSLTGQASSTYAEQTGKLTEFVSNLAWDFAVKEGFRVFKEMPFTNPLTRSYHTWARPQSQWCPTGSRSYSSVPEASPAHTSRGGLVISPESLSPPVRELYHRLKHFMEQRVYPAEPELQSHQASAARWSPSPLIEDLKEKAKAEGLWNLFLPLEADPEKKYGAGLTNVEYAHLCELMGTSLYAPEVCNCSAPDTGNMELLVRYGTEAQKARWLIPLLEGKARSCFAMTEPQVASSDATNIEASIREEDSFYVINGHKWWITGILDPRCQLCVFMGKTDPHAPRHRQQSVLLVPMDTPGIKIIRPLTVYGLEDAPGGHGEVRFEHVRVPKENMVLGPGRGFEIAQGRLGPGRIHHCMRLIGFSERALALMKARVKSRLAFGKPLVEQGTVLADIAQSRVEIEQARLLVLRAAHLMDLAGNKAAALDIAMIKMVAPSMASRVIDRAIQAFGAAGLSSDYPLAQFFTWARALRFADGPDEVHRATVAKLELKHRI

[2] = target: Bone morphogenetic protein receptor type-1B (Homo sapiens, UniProt O00238)
Chain of Bone morphogenetic protein receptor type-1B (O00238 whole entry): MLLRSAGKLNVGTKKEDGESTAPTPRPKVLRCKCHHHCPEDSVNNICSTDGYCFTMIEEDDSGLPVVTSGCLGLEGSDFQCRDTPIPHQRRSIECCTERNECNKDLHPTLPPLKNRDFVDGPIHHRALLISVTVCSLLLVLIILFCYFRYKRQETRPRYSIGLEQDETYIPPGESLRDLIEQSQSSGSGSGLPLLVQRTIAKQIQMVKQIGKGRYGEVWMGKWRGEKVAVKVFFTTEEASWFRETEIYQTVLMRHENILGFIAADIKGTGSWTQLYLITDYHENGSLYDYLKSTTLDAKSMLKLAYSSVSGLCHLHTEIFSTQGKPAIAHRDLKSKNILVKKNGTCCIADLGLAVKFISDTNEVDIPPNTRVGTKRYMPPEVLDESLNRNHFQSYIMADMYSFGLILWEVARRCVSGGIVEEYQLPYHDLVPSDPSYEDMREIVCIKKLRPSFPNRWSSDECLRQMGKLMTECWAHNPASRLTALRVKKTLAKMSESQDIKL

[3] = target: ATP-dependent RNA helicase DDX3X (Homo sapiens, UniProt O00571)
Chain of ATP-dependent RNA helicase DDX3X (O00571 whole entry): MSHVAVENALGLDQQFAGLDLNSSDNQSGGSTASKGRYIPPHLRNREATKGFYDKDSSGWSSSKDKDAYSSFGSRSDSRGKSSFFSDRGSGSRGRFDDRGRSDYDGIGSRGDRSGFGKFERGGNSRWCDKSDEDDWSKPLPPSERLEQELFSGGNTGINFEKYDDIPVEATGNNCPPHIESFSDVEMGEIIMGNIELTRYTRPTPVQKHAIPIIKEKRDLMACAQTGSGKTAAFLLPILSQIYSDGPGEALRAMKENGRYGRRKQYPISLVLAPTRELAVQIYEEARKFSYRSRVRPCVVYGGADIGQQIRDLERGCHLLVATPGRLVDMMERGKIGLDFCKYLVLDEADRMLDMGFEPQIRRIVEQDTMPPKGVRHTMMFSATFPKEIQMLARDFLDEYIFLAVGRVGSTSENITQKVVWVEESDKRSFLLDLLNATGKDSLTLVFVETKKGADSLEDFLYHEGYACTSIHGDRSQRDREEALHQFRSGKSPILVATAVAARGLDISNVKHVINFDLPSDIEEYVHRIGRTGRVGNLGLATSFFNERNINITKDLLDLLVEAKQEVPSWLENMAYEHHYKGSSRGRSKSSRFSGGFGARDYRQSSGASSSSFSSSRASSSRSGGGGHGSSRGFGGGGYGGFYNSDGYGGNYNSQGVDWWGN

[4] = target: DnaJ homolog subfamily A member 1 (Homo sapiens, UniProt P31689)
Chain of DnaJ homolog subfamily A member 1 (P31689 whole entry): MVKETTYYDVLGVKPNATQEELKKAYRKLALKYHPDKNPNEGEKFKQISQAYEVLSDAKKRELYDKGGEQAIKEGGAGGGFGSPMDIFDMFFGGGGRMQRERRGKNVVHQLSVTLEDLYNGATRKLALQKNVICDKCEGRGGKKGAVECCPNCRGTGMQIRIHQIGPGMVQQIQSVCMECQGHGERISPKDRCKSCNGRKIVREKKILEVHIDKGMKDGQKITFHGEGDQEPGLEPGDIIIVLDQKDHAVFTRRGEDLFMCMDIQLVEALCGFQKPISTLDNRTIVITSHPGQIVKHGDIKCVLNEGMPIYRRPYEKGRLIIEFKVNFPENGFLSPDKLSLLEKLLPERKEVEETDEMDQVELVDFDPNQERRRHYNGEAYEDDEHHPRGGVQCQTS

Ephrin type-B receptor 6 = target: T2, Ephrin type-B receptor 6 (Homo sapiens, UniProt O15197)
T2 sequence (O15197 whole entry): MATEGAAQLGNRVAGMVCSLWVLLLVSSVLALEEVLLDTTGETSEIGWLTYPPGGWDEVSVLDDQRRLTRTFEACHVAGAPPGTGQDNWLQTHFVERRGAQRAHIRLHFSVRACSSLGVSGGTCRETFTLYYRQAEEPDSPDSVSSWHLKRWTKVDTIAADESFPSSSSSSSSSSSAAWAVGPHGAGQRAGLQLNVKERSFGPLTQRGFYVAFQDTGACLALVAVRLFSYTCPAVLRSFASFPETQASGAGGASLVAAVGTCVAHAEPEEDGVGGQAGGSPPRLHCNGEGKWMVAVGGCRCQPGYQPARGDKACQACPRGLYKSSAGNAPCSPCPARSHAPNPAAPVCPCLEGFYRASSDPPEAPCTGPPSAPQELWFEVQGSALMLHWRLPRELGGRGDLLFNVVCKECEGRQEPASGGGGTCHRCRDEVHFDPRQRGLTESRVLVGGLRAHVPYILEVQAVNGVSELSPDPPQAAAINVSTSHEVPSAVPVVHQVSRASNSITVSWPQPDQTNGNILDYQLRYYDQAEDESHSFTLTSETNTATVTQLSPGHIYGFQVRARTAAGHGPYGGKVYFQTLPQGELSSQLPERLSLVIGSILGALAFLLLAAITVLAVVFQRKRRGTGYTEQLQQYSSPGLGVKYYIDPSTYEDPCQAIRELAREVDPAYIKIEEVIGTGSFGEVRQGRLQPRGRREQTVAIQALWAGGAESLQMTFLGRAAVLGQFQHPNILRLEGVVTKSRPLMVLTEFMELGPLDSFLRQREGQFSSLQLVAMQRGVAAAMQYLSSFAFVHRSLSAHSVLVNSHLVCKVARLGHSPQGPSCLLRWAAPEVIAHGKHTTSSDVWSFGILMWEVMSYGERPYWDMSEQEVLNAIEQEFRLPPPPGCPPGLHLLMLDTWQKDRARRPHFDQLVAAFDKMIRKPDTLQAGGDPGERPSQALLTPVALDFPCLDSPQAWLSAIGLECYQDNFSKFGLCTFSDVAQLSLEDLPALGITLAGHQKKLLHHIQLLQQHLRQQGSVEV

[5] = target: PAS domain-containing serine/threonine-protein kinase (Homo sapiens, UniProt Q96RG2)
Chain of PAS domain-containing serine/threonine-protein kinase (Q96RG2 whole entry, the tested form may be a part): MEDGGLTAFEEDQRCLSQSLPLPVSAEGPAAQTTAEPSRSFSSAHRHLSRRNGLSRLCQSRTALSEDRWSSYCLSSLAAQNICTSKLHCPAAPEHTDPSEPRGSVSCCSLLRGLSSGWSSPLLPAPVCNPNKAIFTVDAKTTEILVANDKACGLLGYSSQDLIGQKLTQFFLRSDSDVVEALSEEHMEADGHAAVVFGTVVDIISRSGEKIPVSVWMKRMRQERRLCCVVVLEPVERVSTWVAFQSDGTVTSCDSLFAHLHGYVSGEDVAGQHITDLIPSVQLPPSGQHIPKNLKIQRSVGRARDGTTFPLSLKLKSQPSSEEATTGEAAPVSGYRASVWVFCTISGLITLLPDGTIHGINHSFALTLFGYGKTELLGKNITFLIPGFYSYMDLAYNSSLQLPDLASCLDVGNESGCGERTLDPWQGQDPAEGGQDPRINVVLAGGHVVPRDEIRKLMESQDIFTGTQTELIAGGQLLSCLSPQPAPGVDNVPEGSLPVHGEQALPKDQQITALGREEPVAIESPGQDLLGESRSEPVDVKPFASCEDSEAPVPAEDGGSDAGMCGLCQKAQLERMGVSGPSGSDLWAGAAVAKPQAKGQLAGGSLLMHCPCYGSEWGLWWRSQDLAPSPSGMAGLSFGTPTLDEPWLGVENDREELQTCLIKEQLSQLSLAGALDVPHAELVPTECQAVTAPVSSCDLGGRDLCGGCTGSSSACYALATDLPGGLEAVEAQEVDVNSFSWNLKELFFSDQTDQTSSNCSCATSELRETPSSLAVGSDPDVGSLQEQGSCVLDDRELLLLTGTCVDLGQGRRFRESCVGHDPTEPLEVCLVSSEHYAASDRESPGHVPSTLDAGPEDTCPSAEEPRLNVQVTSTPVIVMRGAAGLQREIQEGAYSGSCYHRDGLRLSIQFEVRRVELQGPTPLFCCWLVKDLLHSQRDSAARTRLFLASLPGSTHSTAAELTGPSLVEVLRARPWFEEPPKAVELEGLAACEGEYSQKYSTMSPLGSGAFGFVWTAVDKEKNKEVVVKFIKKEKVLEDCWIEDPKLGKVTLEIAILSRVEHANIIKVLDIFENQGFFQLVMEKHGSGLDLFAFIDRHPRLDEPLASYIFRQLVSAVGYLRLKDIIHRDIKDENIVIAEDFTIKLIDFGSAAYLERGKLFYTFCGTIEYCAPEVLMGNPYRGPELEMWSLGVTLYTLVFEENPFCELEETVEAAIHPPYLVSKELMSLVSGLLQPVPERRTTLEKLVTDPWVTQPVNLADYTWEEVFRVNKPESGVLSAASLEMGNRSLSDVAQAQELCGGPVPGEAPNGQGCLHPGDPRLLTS

[6] = target: Proto-oncogene tyrosine-protein kinase receptor Ret (Homo sapiens, UniProt P07949)
Chain of Proto-oncogene tyrosine-protein kinase receptor Ret (P07949 whole entry): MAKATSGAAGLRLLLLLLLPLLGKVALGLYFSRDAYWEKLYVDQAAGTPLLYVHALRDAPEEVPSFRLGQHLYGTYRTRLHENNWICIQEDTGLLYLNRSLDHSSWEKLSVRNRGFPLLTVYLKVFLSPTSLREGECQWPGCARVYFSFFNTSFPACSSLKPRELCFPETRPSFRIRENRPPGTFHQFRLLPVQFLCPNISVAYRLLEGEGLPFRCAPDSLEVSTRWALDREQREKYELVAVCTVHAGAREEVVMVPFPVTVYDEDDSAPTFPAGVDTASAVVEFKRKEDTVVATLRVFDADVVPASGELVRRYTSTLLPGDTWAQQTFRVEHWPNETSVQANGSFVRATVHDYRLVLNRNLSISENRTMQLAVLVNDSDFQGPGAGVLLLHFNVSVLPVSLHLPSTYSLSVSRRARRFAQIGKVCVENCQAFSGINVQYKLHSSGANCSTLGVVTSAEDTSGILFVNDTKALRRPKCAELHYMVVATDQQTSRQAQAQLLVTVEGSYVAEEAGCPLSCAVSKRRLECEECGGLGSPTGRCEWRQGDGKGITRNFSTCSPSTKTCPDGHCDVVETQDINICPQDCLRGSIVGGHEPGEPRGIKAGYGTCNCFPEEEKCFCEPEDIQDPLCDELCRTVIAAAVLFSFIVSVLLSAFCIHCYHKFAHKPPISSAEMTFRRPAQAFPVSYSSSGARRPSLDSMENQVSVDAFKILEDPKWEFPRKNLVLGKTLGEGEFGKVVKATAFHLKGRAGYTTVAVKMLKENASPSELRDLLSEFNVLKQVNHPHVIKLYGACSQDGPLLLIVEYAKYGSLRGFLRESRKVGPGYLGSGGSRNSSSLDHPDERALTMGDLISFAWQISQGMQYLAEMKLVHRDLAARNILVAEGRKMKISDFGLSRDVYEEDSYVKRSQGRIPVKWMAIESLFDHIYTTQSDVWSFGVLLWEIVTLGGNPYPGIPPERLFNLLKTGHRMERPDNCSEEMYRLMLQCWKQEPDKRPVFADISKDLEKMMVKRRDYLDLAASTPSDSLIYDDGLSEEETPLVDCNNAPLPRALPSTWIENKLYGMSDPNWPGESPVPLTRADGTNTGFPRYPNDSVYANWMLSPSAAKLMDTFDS

TGF-beta receptor type-2 = TGF-beta receptor type-2 (Homo sapiens, UniProt P37173)
Chain of TGF-beta receptor type-2 (P37173 whole entry): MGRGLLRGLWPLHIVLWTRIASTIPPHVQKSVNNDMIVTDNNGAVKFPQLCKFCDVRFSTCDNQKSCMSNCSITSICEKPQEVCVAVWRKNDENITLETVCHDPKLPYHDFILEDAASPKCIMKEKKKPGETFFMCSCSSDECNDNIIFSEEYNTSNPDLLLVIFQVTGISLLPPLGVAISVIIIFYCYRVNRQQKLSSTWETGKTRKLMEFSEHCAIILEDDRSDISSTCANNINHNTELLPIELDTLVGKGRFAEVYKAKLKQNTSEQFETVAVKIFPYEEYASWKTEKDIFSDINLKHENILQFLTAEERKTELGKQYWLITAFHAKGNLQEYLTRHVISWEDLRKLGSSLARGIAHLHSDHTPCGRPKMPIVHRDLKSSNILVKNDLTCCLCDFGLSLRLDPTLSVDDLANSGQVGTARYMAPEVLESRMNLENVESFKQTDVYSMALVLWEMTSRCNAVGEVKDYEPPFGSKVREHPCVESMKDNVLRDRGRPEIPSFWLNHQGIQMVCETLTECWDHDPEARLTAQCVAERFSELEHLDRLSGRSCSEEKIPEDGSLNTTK
Further: in the data inactive means no Kd found up to 30 µM.

| SMILES | Kd [1] | Kd [2] | Kd [3] | Kd [4] | Kd (Ephrin type-B receptor 6) | Kd [5] | Kd [6] | Kd (TGF-beta receptor type-2) |
| --- | --- | --- | --- | --- | --- | --- | --- | --- |
| CO[C@H]1C[C@@H]2CC[C@@H](C)[C@@](O)(O2)C(=O)C(=O)N2CCCC[C@H]2C(=O)O[C@H]([C@H](C)C[C@@H]2CC[C@@H](OC(=O)C(C)(CO)CO)[C@H](OC)C2)CC(=O)[C@H](C)/C=C(\C)[C@@H](O)[C@@H](OC)C(=O)[C@H](C)C[C@H](C)/C=C/C=C/C=C/1C [TEMSIROLIMUS] | > 30 µM (inactive) | > 30 µM (inactive) | > 30 µM (inactive) | > 30 µM (inactive) | > 30 µM (inactive) | > 30 µM (inactive) | > 30 µM (inactive) | > 30 µM (inactive) |
| COc1cc2c(Nc3ccc(Cl)c(Cl)c3F)ncnc2cc1OC[C@@H]1C[C@@H]2CN(C)C[C@@H]2C1 [TESEVATINIB] | > 30 µM (inactive) | > 30 µM (inactive) | > 30 µM (inactive) | > 30 µM (inactive) | 0.259 µM | > 30 µM (inactive) | 0.064 µM (active) | > 30 µM (inactive) |
| O=C(Cc1ccc(-c2ccc(OCCN3CCOCC3)cc2)cn1)NCc1ccccc1 [TIRBANIBULIN] | > 30 µM (inactive) | > 30 µM (inactive) | > 30 µM (inactive) | > 30 µM (inactive) | > 30 µM (inactive) | > 30 µM (inactive) | > 30 µM (inactive) | > 30 µM (inactive) |
| O=C1NC(=O)[C@@H](c2cn3c4c(cccc24)CCC3)[C@@H]1c1c[nH]c2ccccc12 [TIVANTINIB] | > 30 µM (inactive) | > 30 µM (inactive) | > 30 µM (inactive) | > 30 µM (inactive) | > 30 µM (inactive) | > 30 µM (inactive) | > 30 µM (inactive) | > 30 µM (inactive) |
| C[C@@H](NC(=O)c1ncnc(N)c1Cl)c1ncc(C(=O)Nc2cc(C(F)(F)F)c(Cl)cn2)s1 [TOVORAFENIB] | > 30 µM (inactive) | > 30 µM (inactive) | > 30 µM (inactive) | > 30 µM (inactive) | 3.34 µM (active) | > 30 µM (inactive) | > 30 µM (inactive) | 1.64 µM |
| Cc1cc(Nc2ncnc3ccc(NC4=NC(C)(C)CO4)cc23)ccc1Oc1ccn2ncnc2c1 [TUCATINIB] | > 30 µM (inactive) | > 30 µM (inactive) | > 30 µM (inactive) | > 30 µM (inactive) | > 30 µM (inactive) | > 30 µM (inactive) | > 30 µM (inactive) | > 30 µM (inactive) |
